Where two headings read alike, the source gives them in different places.
Experiments:
[1] = test system: symmetric di-methyl arginine in Z-138 cells; assay: Z-138 Methylation Assay (In Cell Western for symmetric di-methyl arginine and DNA content); format: cell-based; details: 96 hours incubation, read-out: ICW EC50
Source text: [formula] Where top and bottom are the normally allowed to float, but may be fixed at 100 or 0 respectively in a 3-parameter fit. The Hill Coefficient normally allowed to float but may also be fixed at 1 in a 3-parameter fit. Y is the % inhibition and X is the compound concentration. Z-138 Methylation Assay
Z-138 suspension cells were purchased from ATCC (American Type Culture Collection, Manassas, Va.). RPMI/Glutamax medium, penicillin-streptomycin, heat inactivated fetal bovine serum, and D-PBS were purchased from Life Technologies, Grand Island, N.Y., USA. Odyssey blocking buffer, 800CW goat anti-rabbit IgG (H+L) antibody, and Licor Odyssey infrared scanner were purchased from Licor Biosciences, Lincoln, Nebr., USA. Symmetric di-methyl arginine antibody was purchased from EMD Millipore, Billerica, Mass., USA. 16% Paraformaldehyde was purchased from Electron Microscopy Sciences, Hatfield, Pa., USA.
Z-138 suspension cells were maintained in growth medium (RPMI 1640 supplemented with 10% v/v heat inactivated fetal bovine serum and 100 units/mL penicillin-streptomycin) and cultured at 37° C. under 5% CO2.
Cell Treatment, in Cell Western (ICW) for Detection of Symmetric Di-Methyl Arginine and DNA Content.
Z-138 cells were seeded in assay medium at a concentration of 50,000 cells per mL to a 384-well cell culture plate with 50 μL per well. Compound (100 nL) from 384 well source plates was added directly to 384 well cell plate. Plates were incubated at 37° C., 5% CO2 for 96 hours. After four days of incubation, 40 μL of cells from incubated plates were added to poly-D-lysine coated 384 well culture plates (BD Biosciences 356697). Plates were incubated at room temperature for 30 minutes then incubated at 37° C., 5% CO2 for 5 hours. After the incubation, 40 μL per well of 8% paraformaldehyde in PBS (16% paraformaldahyde was diluted to 8% in PBS) was added to each plate and incubated for 30 minutes. Plates were transferred to a Biotek 405 plate washer and washed 5 times with 100 μL per well of wash buffer (IX PBS with 0.1% Triton X-100 (v/v)). Next 30 μL per well of Odyssey blocking buffer were added to each plate and incubated 1 hour at room temperature. Blocking buffer was removed and 20 μL per well of primary antibody was added (symmetric di-methyl arginine diluted 1:100 in Odyssey buffer with 0.1% Tween 20 (v/v)) and plates were incubated overnight (16 hours) at 4° C. Plates were washed 5 times with 100 μL per well of wash buffer. Next 20 μL per well of secondary antibody was added (1:200 800CW goat anti-rabbit IgG (H+L) antibody, 1:1000 DRAQ5 (Biostatus limited) in Odyssey buffer with 0.1% Tween 20 (v/v)) and incubated for 1 hour at room temperature. The plates were washed 5 times with 100 μL per well wash buffer then 1 time with 100 μL per well of water. Plates were allowed to dry at room temperature then imaged on the Licor Odyssey machine which measures integrated intensity at 700 nm and 800 nm wavelengths. Both 700 and 800 channels were scanned.
First, the ratio for each well was determined by:
Each plate included fourteen control wells of DMSO only treatment (minimum inhibition) as well as fourteen control wells for maximum inhibition treated with 3 μM of a reference compound (Background wells). The average of the ratio values for each control type was calculated and used to determine the percent inhibition for each test well in the plate. Reference compound was serially diluted three-fold in DMSO for a total of nine test concentrations, beginning at 3 μM. Percent inhibition was determined and IC50 curves were generated using triplicate wells per concentration of compound. […]

Z-138 cells = assay: Z-138 Proliferation Assay (Cell Titer Glo); format: cell-based; details: 5 days incubation
Source text: [formula] Z-138 Proliferation Assay
Z-138 suspension cells were purchased from ATCC (American Type Culture Collection, Manassas, Va.). RPMI/Glutamax medium, penicillin-streptomycin, heat inactivated fetal bovine serum were purchased from Life Technologies, Grand Island, N.Y., USA. V-bottom polypropylene 384-well plates were purchased from Greiner Bio-One, Monroe, N.C., USA. Cell culture 384-well white opaque plates were purchased from Perkin Elmer, Waltham, Mass., USA. Cell-Titer Glo® was purchased from Promega Corporation, Madison, Wis., USA. SpectraMax M5 plate reader was purchased from Molecular Devices LLC, Sunnyvale, Calif., USA.
Z-138 suspension cells were maintained in growth medium (RPMI 1640 supplemented with 10% v/v heat inactivated fetal bovine serum and cultured at 37° C. under 5% CO2. Under assay conditions, cells were incubated in assay medium (RPMI 1640 supplemented with 10% v/v heat inactivated fetal bovine serum and 100 units/mL penicillin-streptomycin) at 37° C. under 5% CO2.
For the assessment of the effect of compounds on the proliferation of the Z-138 cell line, exponentially growing cells were plated in 384-well white opaque plates at a density of 10,000 cells/ml in a final volume of 50 μl of assay medium. A compound source plate was prepared by performing triplicate nine-point 3-fold serial dilutions in DMSO, beginning at 10 mM (final top concentration of compound in the assay was 20 μM and the DMSO was 0.2%). A 100 nL aliquot from the compound stock plate was added to its respective well in the cell plate. […] After addition of compounds, assay plates were incubated for 5 days at 37° C., 5% CO2, relative humidity >90%.
Cell viability was measured by quantitation of ATP present in the cell cultures, adding 35 μl of Cell Titer Glo® reagent to the cell plates. Luminescence was read in the SpectraMax M5 microplate reader. The concentration of compound inhibiting cell viability by 50% was determined using a 4-parametric fit of the normalized dose response curves.

Compound `C[C@@H](Oc1cccc2cccnc12)C(=O)NC[C@H](O)CN1Cc2ccccc2C1` [compound 5, (R)—N—((S)-2-hydroxy-3-(isoindolin-2-yl)propyl)-2-(quinolin-8-yloxy)propanamide] has an EC50 ([1]; Homo sapiens) of 101 to 1000 nM and an EC50 (Z-138 cells; Homo sapiens, 120 h) of 1000 to 10000 nM.
`O=C(COc1ccccc1-c1cc[nH]n1)NCC(O)CN1Cc2ccccc2C1` (centres unmarked) [compound 7] was tested, and the EC50 ([1]; Homo sapiens) was 101 to 1000 nM and the EC50 (Z-138 cells; Homo sapiens, 120 h) was > 20000 nM.
`O=C(NCC(O)CN1Cc2ccccc2C1)c1cccc(-c2ccccn2)c1` (centres unmarked) [compound 13, N-(2-hydroxy-3-(isoindolin-2-yl)propyl)-3-(pyridin-2-yl)benzamide] was tested, and the EC50 ([1]; Homo sapiens) was 1000 to 10000 nM and the EC50 (Z-138 cells; Homo sapiens, 120 h) was > 20000 nM.
`CN(C)S(=O)(=O)c1ccccc1OCC(=O)NCC(O)CN1Cc2ccccc2C1` (centres unmarked) [compound 15, 2-(2-(N,N-dimethylsulfamoyl)phenoxy)-N-(2-hydroxy-3-(isoindolin-2-yl)propyl)acetamide] showed an EC50 ([1]; Homo sapiens) of 101 to 1000 nM and an EC50 (Z-138 cells; Homo sapiens, 120 h) of 1000 to 10000 nM.
For `O=C(COc1cccc2cccnc12)NCC(O)CN1Cc2ccccc2C1` (centres unmarked) [compound 19, N-(2-hydroxy-3-(isoindolin-2-yl)propyl)-2-(quinolin-8-yloxy)acetamide], the EC50 ([1]; Homo sapiens) was 1000 to 10000 nM and the EC50 (Z-138 cells; Homo sapiens, 120 h) was > 20000 nM.
In the case of `O=C(NC[C@H](O)CN1Cc2ccccc2C1)c1cccc(NC2CCOCC2)c1` [compound 28], the EC50 ([1]; Homo sapiens) is reported as 101 to 1000 nM and the EC50 (Z-138 cells; Homo sapiens, 120 h) is reported as 10000 to 50000 nM.
With `O=C(NC[C@H](O)CN1Cc2ccccc2C1)c1cc(NC2CCOCC2)ncn1` [compound 29] the EC50 ([1]; Homo sapiens) was 101 to 1000 nM and the EC50 (Z-138 cells; Homo sapiens, 120 h) was 1000 to 10000 nM.
With `Cc1nc(NC2COC2)cc(C(=O)NC[C@H](O)CN2Cc3ccccc3C2)n1` [compound 35] the EC50 ([1]; Homo sapiens) was > 1000 nM and the EC50 (Z-138 cells; Homo sapiens, 120 h) was > 20000 nM.
Work on `O=C(NC[C@H](O)CN1Cc2ccccc2C1)c1cc(NC2COC2)nc(C(F)(F)F)n1` [compound 36] yielded an EC50 ([1]; Homo sapiens) of 101 to 1000 nM and an EC50 (Z-138 cells; Homo sapiens, 120 h) of 10000 to 50000 nM.
In the case of `O=C(CCc1nc2ccccc2[nH]1)NCC(O)CN1Cc2ccccc2C1` (centres unmarked) [compound 37], the EC50 ([1]; Homo sapiens) is reported as 101 to 1000 nM and the EC50 (Z-138 cells; Homo sapiens, 120 h) is reported as > 20000 nM.
With `O=C(NC[C@H](O)CN1Cc2ccccc2C1)c1cc(NC2COC2)nc(N2CCOCC2)n1` [compound 38] the EC50 ([1]; Homo sapiens) was < 100 nM and the EC50 (Z-138 cells; Homo sapiens, 120 h) was 1000 to 10000 nM.
For `CC(=O)N1CCC(Nc2cc(C(=O)NC[C@H](O)CN3Cc4ccccc4C3)ccn2)CC1` [compound 40], the EC50 ([1]; Homo sapiens) was < 100 nM and the EC50 (Z-138 cells; Homo sapiens, 120 h) was 101 to 1000 nM.
`O=C(NC[C@H](O)CN1CCc2ccccc21)c1cc(NC2COC2)ncn1` [compound 42] was tested, and the EC50 ([1]; Homo sapiens) was > 1000 nM and the EC50 (Z-138 cells; Homo sapiens, 120 h) was > 5000 nM.
`CC(=O)N1CCC(Nc2cc(C(=O)NC[C@H](O)CN3CCc4ccccc43)ncn2)CC1` [compound 43] was tested, and the EC50 ([1]; Homo sapiens) was > 1000 nM and the EC50 (Z-138 cells; Homo sapiens, 120 h) was > 5000 nM.
For `CC(=O)N1CCC(Nc2cc(C(=O)NC[C@H](O)CN3CCc4ccccc43)ccn2)CC1` [compound 44], the EC50 ([1]; Homo sapiens) was > 1000 nM and the EC50 (Z-138 cells; Homo sapiens, 120 h) was > 5000 nM.
In the case of `O=C(NC[C@H](O)CN1CCCCc2ccccc21)c1cc(NC2COC2)ncn1` [compound 45], the EC50 ([1]; Homo sapiens) is reported as > 1000 nM and the EC50 (Z-138 cells; Homo sapiens, 120 h) is reported as > 5000 nM.
For `CC(=O)N1CC(Nc2cc(C(=O)NC[C@H](O)CN3CCCCc4ccccc43)ncn2)C1` [compound 46], the EC50 ([1]; Homo sapiens) was > 1000 nM and the EC50 (Z-138 cells; Homo sapiens, 120 h) was > 5000 nM.
With `CC(=O)N1CCC(Nc2cc(C(=O)NC[C@H](O)CN3CCCCc4ccccc43)ncn2)CC1` [compound 47] the EC50 ([1]; Homo sapiens) was > 1000 nM and the EC50 (Z-138 cells; Homo sapiens, 120 h) was > 5000 nM.
For `O=C(NC[C@H](O)CN1CCCc2ccccc2C1)c1cc(NC2COC2)ncn1` [compound 48], the EC50 ([1]; Homo sapiens) was > 1000 nM and the EC50 (Z-138 cells; Homo sapiens, 120 h) was > 5000 nM.
For `CC(=O)N1CC(Nc2cc(C(=O)NC[C@H](O)CN3CCCc4ccccc4C3)ncn2)C1` [compound 49], the EC50 ([1]; Homo sapiens) was > 1000 nM and the EC50 (Z-138 cells; Homo sapiens, 120 h) was > 5000 nM.
For `CC(=O)N1CCC(Nc2cc(C(=O)NC[C@H](O)CN3CCCc4ccccc4C3)ncn2)CC1` [compound 50], the EC50 ([1]; Homo sapiens) was > 1000 nM and the EC50 (Z-138 cells; Homo sapiens, 120 h) was > 5000 nM.
With “N-(2-hydroxy-3-(isoindolin-2-yl)propyl)-2-((4-methyl-3,4-dihydro-2H-benzo[b][1,4]oxazin-5-yl)oxy)acetamide [compound 10]” the EC50 [1] was 101 to 1000 nM and the EC50 (Z-138 cells) was > 20000 nM.
